Values quoted from earlier work as cited in publication PMC3665737 (Biochimica et biophysica acta, 2013).
Where a SMILES comes first, the peptide text is derived from it. [ ]: non-standard residue; d: D form. Nle = CCCC[C@H](N)C(=O)O

What was measured:
PKA (C subunit) = details: ALLN 500 μM, 30 min, 37 °C, ref [15]; for calpain dependence of induced PKA activity (effect of ALLN): oligomycin 5 μM, rotenone 10 μM, CCCP 5 μM, sodium azide 2 mM
[1] = tested on: regulatory subunits (RI and RII) of PKA; details: bovine heart mitochondria exposed to digitonin; ref [15]
mitochondrial calpain = details: bovine heart mitochondria; substrate N-succinyl-Leu-Tyr-7-amido-4-methylcoumarin; ref [15]
PKA = details: peptides 1 - 3, with 14-3-3 domain; ref [14]
R subunit = details: isolated R subunit; 10 μM CaCl2, 37 °C, 20 min; ref [15]
C subunit = details: isolated C subunit; Ca^2+ ≥ 100 μM, 37 °C, 20 min; ref [15]
R2C2 holoenzyme = details: 100 μM CaCl2, 0.5, 1.5, and 2.0 h, western blot, ref [15]

For `N#CC(C#N)=NNc1cccc(Cl)c1` [CCCP, chlorophenylhydrazone], the “calpain dependence of induced PKA activity (effect of ALLN)” value (from here on “calpain dependence”) (PKA (C subunit)) is listed as “attenuated by ALLN”.

In the case of `C=C(C)[C@H]1Cc2c(ccc3c2O[C@@H]2COc4cc(OC)c(OC)cc4[C@@H]2C3=O)O1` [rotenone], the “calpain dependence” value (PKA (C subunit)) is listed as “attenuated by ALLN”.

In the case of `[N-]=[N+]=[N-].[Na+]` [azide, sodium azide], the “calpain dependence” value (PKA (C subunit)) is given as “attenuated by ALLN”.

For `CCCC[C@@H](C=O)NC(=O)[C@H](CC(C)C)NC(=O)[C@H](CC(C)C)NC(C)=O` [ALLN, N-acetyl-Leu-Leu-Nle-al] (Ac-Leu-Leu-[Nle]-aldehyde), the “attenuation of PKA activity induced by rotenone, azide and CCCP” value (PKA (C subunit); western blot) is given as “attenuated”.

For `CC[C@H]1/C=C/C=C/C[C@@H](C)[C@H](O)[C@@](C)(O)C(=O)[C@@H](C)[C@H](O)[C@@H](C)C(=O)[C@@H](C)[C@H](O)[C@@H](C)/C=C/C(=O)O[C@@H]2[C@H](C)[C@H](CC1)O[C@]1(CC[C@H](C)[C@H](C[C@@H](C)O)O1)[C@H]2C` [oligomycin], the “calpain dependence” value (PKA (C subunit)) is listed as “calpain independent”.

For `C[C@@H]1CC[C@@]2(OC1)O[C@H]1[C@@H](O)[C@H]3[C@@H]4CC[C@H]5C[C@@H](O[C@@H]6O[C@H](CO)[C@H](O[C@@H]7O[C@H](CO)[C@@H](O)[C@H](O[C@@H]8OC[C@@H](O)[C@H](O)[C@H]8O)[C@H]7O[C@@H]7O[C@H](CO)[C@H](O)[C@H](O[C@@H]8O[C@H](CO)[C@@H](O)[C@H](O)[C@H]8O)[C@H]7O)[C@H](O)[C@H]6O)[C@H](O)C[C@]5(C)[C@H]4CC[C@]3(C)[C@H]1[C@@H]2C` [digitonin], the C subunit proteolysis [1] is given as “the catalytic subunit (C) remained intact” and the “activation of mitochondrial calpain” value (mitochondrial calpain) is given as “direct activation of mitochondrial calpain”.

For `CCCCc1ccc(Nc2ccc(Nc3ccc(CCCC)cc3S(=O)(=O)[O-])c3c2C(=O)c2ccccc2C3=O)c(S(=O)(=O)[O-])c1.[Na+].[Na+]` [Acid green 27], the “PKA-induced fluorescence increase with quencher” value (PKA) is listed as “dramatic PKA-induced fluorescence increase”.

B1: calpain I: Ca^2+-activated protease (protein, UniProt P07384 2-714; P04632 1-268, looked up)
Calpain-1 catalytic subunit: SEEIITPVYCTGVSAQVQKQRARELGLGRHENAIKYLGQDYEQLRVRCLQSGTLFRDEAFPPVPQSLGYKDLGPNSSKTYGIKWKRPTELLSNPQFIVDGATRTDICQGALGDCWLLAAIASLTLNDTLLHRVVPHGQSFQNGYAGIFHFQLWQFGEWVDVVVDDLLPIKDGKLVFVHSAEGNEFWSALLEKAYAKVNGSYEALSGGSTSEGFEDFTGGVTEWYELRKAPSDLYQIILKALERGSLLGCSIDISSVLDMEAITFKKLVKGHAYSVTGAKQVNYRGQVVSLIRMRNPWGEVEWTGAWSDSSSEWNNVDPYERDQLRVKMEDGEFWMSFRDFMREFTRLEICNLTPDALKSRTIRKWNTTLYEGTWRRGSTAGGCRNYPATFWVNPQFKIRLDETDDPDDYGDRESGCSFVLALMQKHRRRERRFGRDMETIGFAVYEVPPELVGQPAVHLKRDFFLANASRARSEQFINLREVSTRFRLPPGEYVVVPSTFEPNKEGDFVLRFFSEKSAGTVELDDQIQANLPDEQVLSEEEIDENFKALFRQLAGEDMEISVKELRTILNRIISKHKDLRTKGFSLESCRSMVNLMDRDGNGKLGLVEFNILWNRIRNYLSIFRKFDLDKSGSMSAYEMRMAIESAGFKLNKKLYELIITRYSEPDLAVDFDNFVCCLVRLETMFRFFKTLDTDLDGVVTFDLFKWLQLTMFA
Calpain small subunit 1: MFLVNSFLKGGGGGGGGGGGLGGGLGNVLGGLISGAGGGGGGGGGGGGGGGGGGGGTAMRILGGVISAISEAAAQYNPEPPPPRTHYSNIEANESEEVRQFRRLFAQLAGDDMEVSATELMNILNKVVTRHPDLKTDGFGIDTCRSMVAVMDSDTTGKLGFEEFKYLWNNIKRWQAIYKQFDTDRSGTICSSELPGAFEAAGFHLNEHLYNMIIRRYSDESGNMDFDNFISCLVRLDAMFRAFKSLDKDGTGQIQVNIQEWLQLTMYS
For B1, the R subunit digestion (R subunit) is given as “selectively digested”, the C subunit digestion (C subunit) is given as “partial proteolysis” and the “subunit proteolysis in holoenzyme” value (R2C2 holoenzyme) is given as “proteolysis of the R subunit, but not the C subunit”.
